Test results published in article doi:10.1101/2023.02.25.529946, “Development of Cell Permeable NanoBRET Probes for the Measurement of PLK1 Target Engagement in Live Cells” (bioRxiv, 2023).

Target: T1, PLK1 (Homo sapiens, UniProt P53350)
T1 construct: full-length PLK1, N-terminal NLuc fusion (NLuc-PLK1)
Assay: live-cell NanoBRET probe titration with and without excess compound […]
Assay type: cell-based

T1 sequence (P53350 whole entry, the tested form may be a part): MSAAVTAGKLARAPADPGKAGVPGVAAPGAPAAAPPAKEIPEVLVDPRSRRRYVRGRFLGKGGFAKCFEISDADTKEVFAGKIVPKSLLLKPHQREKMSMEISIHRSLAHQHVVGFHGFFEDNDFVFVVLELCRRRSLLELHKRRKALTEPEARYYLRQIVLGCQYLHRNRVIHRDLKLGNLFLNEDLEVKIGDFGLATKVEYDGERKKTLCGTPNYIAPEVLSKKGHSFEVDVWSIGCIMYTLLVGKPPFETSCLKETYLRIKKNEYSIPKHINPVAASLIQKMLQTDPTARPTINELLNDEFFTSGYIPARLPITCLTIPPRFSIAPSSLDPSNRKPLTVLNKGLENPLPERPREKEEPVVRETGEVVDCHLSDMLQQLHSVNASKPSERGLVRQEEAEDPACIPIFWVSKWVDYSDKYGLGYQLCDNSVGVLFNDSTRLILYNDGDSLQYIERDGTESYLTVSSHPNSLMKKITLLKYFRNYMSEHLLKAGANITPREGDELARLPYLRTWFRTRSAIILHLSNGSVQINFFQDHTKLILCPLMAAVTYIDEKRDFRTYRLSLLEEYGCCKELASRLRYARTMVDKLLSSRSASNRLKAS

`CC[C@@H]1C(=O)N(C)c2cnc(Nc3ccc(C(=O)NC4CCN(C(=O)CCOCCOCCOCCOCCNC(=O)CCc5ccc6n5[B-](F)(F)[N+]5=C(c7ccc[nH]7)C=CC5=C6)CC4)cc3OC)nc2N1C(C)C` [compound 11, (R)-N-(1-(1-(5,5-difluoro-7-(1H-pyrrol-2-yl)-5H-5^λ,6^λ-dipyrrolo[1,2-c:2',1'-f][1,3,2]diazaborinin-3-yl)-3-oxo-7,10,13,16-tetraoxa-4-azanonadecan-19-oyl)piperidin-4-yl)-4-((7-ethyl-8-isopropyl-5-methyl-6-oxo-5,6,7,8-tetrahydropteridin-2-yl)amino)-3-methoxybenzamide] showed an EC50 of 0.3 µM.
